The target of test [1] is PKCδ (Homo sapiens, UniProt Q05655). As to the kind of experiment: In vitro radiometric PKC kinase assay. Format: biochemical. The arrangement: purchased SignalChem (Richmond, BC, Canada). The note with it: read-out: inhibition of PKCδ. On the procedure:
In this study, we counter-screened the twenty-eight PKD1 inhibitory agents for inhibition of PKCα, PKCδ and CAMKIIα in order to get an initial profile for the potential PKD selectivity, since these are the functionally most closely related kinases. The compounds were examined at 0.1, 1 and 10 µM concentration. […] Next, the inhibitory activity for CAMKIIα was examined.
The PKC kinase assay was carried out by co-incubating 1 µCi [γ-^32P]ATP, 20 µM ATP, 50 ng of purified PKCα or PKCδ and 5 µg of myelin basic protein 4–14, 0.25 mg/mL bovine serum albumin, 0.1 mg/mL phosphatidylcholine/phosphatidylserine (80/20%) (1 µM), 1 µM phorbol dibutyrate in 50 µL of kinase buffer containing 50 mM Tris-HCl, pH 7.5, 4 mM MgCl2 and 10 mM β-mercaptoethanol. For the CAMK assay, 50 ng of CAMK and 2 µg Syntide-2 substrate in 50 µL kinase buffer were incubated with 0.1 mM MgCl2, 1 µCi of [γ-^32P] ATP, 70 µM ATP. 0.5 mM CaCl2 and 30 ng/µL calmodulin were preincubated for 15 min on ice and then added in the kinase reaction. The reactions were incubated at 30°C for 10 minutes and 25 µL of the reaction was spotted on Whatman P81 filter paper. The filter paper was washed 3 times in 0.5% phosphoric acid, air dried and counted using Beckman LS6500 multipurpose scintillation counter.

The target in test [2] is T1, recombinant GST-tagged human protein kinase D1 (PKD1) (Homo sapiens, UniProt Q15139).
T1 construct: purchased Enzo Life sciences (Farmingdale, NY)
T1 sequence (Q15139 1-912): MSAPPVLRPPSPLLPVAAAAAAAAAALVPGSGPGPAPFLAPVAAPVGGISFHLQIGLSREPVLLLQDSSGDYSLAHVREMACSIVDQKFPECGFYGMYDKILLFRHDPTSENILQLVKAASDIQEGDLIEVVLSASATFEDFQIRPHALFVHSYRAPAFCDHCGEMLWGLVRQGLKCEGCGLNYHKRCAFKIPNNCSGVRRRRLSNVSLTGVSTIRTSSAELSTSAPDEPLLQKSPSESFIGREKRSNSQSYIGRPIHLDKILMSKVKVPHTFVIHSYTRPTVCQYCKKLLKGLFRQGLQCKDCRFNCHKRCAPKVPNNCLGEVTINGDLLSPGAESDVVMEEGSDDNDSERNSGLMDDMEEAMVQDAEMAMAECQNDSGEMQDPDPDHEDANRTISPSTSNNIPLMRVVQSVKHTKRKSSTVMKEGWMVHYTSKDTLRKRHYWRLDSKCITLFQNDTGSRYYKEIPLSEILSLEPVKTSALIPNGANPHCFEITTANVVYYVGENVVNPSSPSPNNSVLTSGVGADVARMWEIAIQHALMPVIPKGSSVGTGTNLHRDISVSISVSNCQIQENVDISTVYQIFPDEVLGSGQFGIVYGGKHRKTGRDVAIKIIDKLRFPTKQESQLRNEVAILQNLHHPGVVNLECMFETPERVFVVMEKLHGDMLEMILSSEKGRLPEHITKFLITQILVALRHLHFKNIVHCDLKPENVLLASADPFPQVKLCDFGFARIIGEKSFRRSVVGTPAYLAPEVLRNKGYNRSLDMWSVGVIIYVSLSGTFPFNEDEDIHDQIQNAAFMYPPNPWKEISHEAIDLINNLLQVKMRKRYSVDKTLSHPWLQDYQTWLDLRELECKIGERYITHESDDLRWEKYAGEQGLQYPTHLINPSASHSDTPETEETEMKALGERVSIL
Nature of the test: In vitro radiometric PKD1 kinase assay. It counts as biochemical. Particulars: for inhibition at 1 µM: read-out: Inhibition of PKD1. On the procedure: All compounds were given distinct UPCMLD (University of Pittsburgh Center for Chemical Methodologies and Library Development) IDs and were then assigned numerical IDs for convenient data display. Evaluation of each compound was carried out in triplicate at a single concentration (1 µM). Our previously described PKD1 inhibitor, kb-NB142-70, and DMSO (solvent alone) were used as positive and negative controls, respectively. Percent residual kinase activity was calculated based on that of the negative control (DMSO).
Kinase active recombinant GST-tagged human protein kinase D1 (PKD1) was obtained from Enzo Life sciences (Farmingdale, NY). DMSO was purchased from Sigma. Recombinant PKCα, PKCδ and CAMKIIα were obtained from SignalChem (Richmond, BC, Canada). ATP was purchased from Fisher Scientific. HDAC5 substrate peptide was synthesized by Biobasic Canada Inc. (Markham, ON). Myelin basic protein 4–14 was purchased from AnaSpec Inc. (Fremont, CA). The targeted kinase inhibitor library was obtained from Hoffmann-La Roche, Inc.
1.2 µg of HDAC-5 was used as substrate in the reaction. Phosphorylation of HDAC5 was detected in a kinase reaction having 1 µCi [γ-^32P] […] The reaction was incubated at 30° for 10 minutes and 25 µL of the reaction was spotted on Whatman P81 filter paper. The filter paper was washed 3 times in 0.5% phosphoric acid, air dried and counted using Beckman LS6500 multipurpose scintillation counter. Percent PKD1 inhibition was graphed using GraphPad Prism software 5.0.

The subject of test [3] is PKD1. The arrangement: method as in PMID 18829454, PMID 22267986, PMID 21617763, PMID 20444281, PMID 21998636. Particulars: cited from earlier work; for pIC50: previous HTS assays; for inhibition of PKD1 in vitro: previous work.
Test [4] has as its system PKD1 in LNCaP prostate cancer cells. The arrangement: method as in PMID 18829454, PMID 22267986, PMID 21617763, PMID 20444281, PMID 21998636. The note with it: cited from earlier work.
For test [5], the target named is T2, endogenous PKD1 in LNCaP prostate cancer cells (Homo sapiens, UniProt Q15139).
T2 construct: endogenous in cells; host or cells: LNCaP prostate cancer cells
T2 sequence (Q15139 1-912): T1 sequence (Q15139 1-912)
Nature of the test: PMA-induced activation of PKD1 in LNCaP cells (immunoblot pS916 / pS744/748). It counts as cell-based. The note with it: PMA 10 nM. On the procedure: (§1) PMA induces PKC-dependent phosphorylation of Ser744/748 (S^744/748) in the activation loop followed by autophosphorylation of PKD1 on Ser916 (S^916) in the C-terminus, [31]. The catalytic activity of PKD1 correlates well with the level of phosphorylation at S^916 [31].
(§2) Figure 5 In vitro IC50, cellular activity, and mode of action of representative compounds. […] IC50 values were calculated based on the dose-response curve. Data are represented as mean ± SEM of 3 independent experiments. […] Cell lysates were subjected to immunoblotting for pS^916-PKD1 and pS^744/748-PKD1. Tubulin was blotted as loading control. The experiments were repeated three times and representative blots are shown. C.

Test [6] addresses T3, PKD1 (Homo sapiens, UniProt Q15139).
T3 construct: purchased Enzo Life sciences (Farmingdale, NY)
Nature of the test: Kinetic analysis, Lineweaver-Burk plots (ATP competition). It counts as biochemical. On the procedure: as §1, §2

[7] abbreviates: 1 µM, triplicate determinations.

pIC50: −log10 of the molar value. Where two headings read alike, the source gives them in different places.

PKCδ, sequence (Q05655 whole entry): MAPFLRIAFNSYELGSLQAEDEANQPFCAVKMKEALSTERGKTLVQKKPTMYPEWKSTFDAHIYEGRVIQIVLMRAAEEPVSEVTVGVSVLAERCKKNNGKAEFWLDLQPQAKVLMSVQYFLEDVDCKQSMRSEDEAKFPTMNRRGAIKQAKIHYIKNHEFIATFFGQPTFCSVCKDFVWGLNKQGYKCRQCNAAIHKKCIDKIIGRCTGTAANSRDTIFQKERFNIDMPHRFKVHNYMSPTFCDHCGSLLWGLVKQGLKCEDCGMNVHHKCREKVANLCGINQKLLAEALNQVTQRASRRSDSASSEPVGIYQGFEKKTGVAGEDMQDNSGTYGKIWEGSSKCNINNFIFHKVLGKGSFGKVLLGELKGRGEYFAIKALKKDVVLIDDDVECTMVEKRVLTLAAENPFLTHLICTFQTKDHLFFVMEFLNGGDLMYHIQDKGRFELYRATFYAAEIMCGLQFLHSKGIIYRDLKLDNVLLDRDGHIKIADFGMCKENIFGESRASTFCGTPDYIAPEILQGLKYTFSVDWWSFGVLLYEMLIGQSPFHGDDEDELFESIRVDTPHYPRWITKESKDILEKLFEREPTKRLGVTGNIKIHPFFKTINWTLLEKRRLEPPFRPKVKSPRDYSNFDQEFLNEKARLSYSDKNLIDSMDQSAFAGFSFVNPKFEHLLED

Consider `COc1cccc(C(=O)c2sc(Nc3ccc(N4CCN(C(C)C)CC4)cc3)nc2N)c1` [Compound 104], for which the inhibition at 10 µM in test [1] is ~50%. The inhibition at 1 µM in test [2] was 65%.
For `COc1ccc(O)c(C(=O)c2ccc(C(=O)N[C@@H]3CCCNC[C@H]3NC(=O)c3ccncc3)cc2)c1F` [Compound 175], in test [2], the inhibition at 1 µM was found to be 78%.
`O=C1N=C(N[C@H](CO)Cc2ccccc2)S/C1=C\c1ccc2ncccc2c1` [Compound 190]: the inhibition at 10 µM in test [1] (10 µM) was ~70%. Moreover, the inhibition at 1 µM in test [2] (setting [7]) turned out to be 49%.
With `COc1ccc(O)c(C(=O)c2ccc(C(=O)O[C@@H]3CCCNC[C@H]3NC(=O)c3ccncc3)cc2)c1F` [Compound 100], the inhibition at 1 µM in test [2] stood at 77%.
Consider `O=C1Nc2ccc(F)c3c(OCCO)cc(-c4ccc[nH]4)c1c23` [Compound 101], for which the inhibition at 10 µM in test [1] was ~50%. Also, the inhibition at 1 µM in test [2] turned out to be 86%.
For the molecule `Fc1ccc(-c2c(-c3ccncc3)[nH]c3cccnc23)cc1` [Compound 116], the inhibition at 10 µM in test [1] is ~70%. The inhibition at 1 µM in test [2] was 86%.
Take `O=C1NCCCc2c1oc1ccc(O)cc21` [CID755673]: in test [3], the pIC50 was 6.74 and the “inhibition of PKD1 in vitro” value is “low nanomolar range”. In addition, the “suppression of PKD1 autophosphorylation at Ser916” value in test [4] is given as “low micromolar range”.
With `CCN1/C(=C/C(C)=O)Sc2ccc(OC)cc21` [CID1893668], the pIC50 in test [3] is 5.77. Also, the “inhibition of phorbol ester-induced endogenous PKD1 activation” value in test [4] is on record as “in a concentration-dependent manner”.
Turning to `COc1cc[nH]c1C=C1C(=O)Nc2ccc(F)c(C#CC(O)C(N)C(C)O)c21` (stereo not drawn) [Compound 17], the inhibition at 1 µM in test [2] (setting [7]) turned out to be 97%.
Regarding `Cn1c(-c2ccncc2)c(-c2ccc(F)cc2)c2ncccc21` [Compound 121], the inhibition at 1 µM in test [2] came out at 55%.
Take `O=C(Nc1ccc(CN2CCOCC2)cc1)c1ccc(-c2cccc(Cl)c2)o1` [CID2011756]: the negative-log IC50 (pIC50) in test [3] was 5.49. The “inhibition of phorbol ester-induced endogenous PKD1 activation” value in test [4] is “in a concentration-dependent manner”.
As for `CNC1=NC(=O)/C(=C/c2ccc3ncccc3c2)S1` [Compound 209], in test [2] (setting [7]), the inhibition at 1 µM turned out to be 64%. In addition, the pIC50 in test [2] (dose-response, mean ± SEM of 3 independent experiments) is 6.25; in test [5] (densitometry of pS916-PKD1 levels, read-out: cellular IC50 for inhibition of PKD1), 4.74. The “effect on PKC-induced transphosphorylation at S744/748” value in test [5] is recorded as “did not affect”. The “mode of inhibition with respect to ATP” value in test [6] is “competitive with respect to ATP”.
Turning to `COc1cc[nH]c1/C=C1\C(=O)Nc2ccccc21` [Compound 5], in test [2] (setting [7]), the inhibition at 1 µM turned out to be 55%.
`Cc1cc(NCCCN)nc(-c2ccccc2O)n1` [CID5389142]: the pIC50 in test [3] was 5.82. Also, the “inhibition of phorbol ester-induced endogenous PKD1 activation” value in test [4] was “in a concentration-dependent manner”.
As to `O=C1NCCSc2c1sc1ccc(O)cc21` [kb-NB142-70], in test [3], the pIC50 was 7.55 and the “inhibition of PKD1 in vitro” value is listed as “low nanomolar range”. Also, the “suppression of PKD1 autophosphorylation at Ser916” value in test [4] was “low micromolar range”.
`COc1cc[nH]c1/C=C1\C(=O)Nc2ccc([N+](=O)[O-])c(N3CC[C@@H](O)C3)c21` [Compound 102]: the inhibition at 1 µM in test [2] (setting [7]) was found to be 93%.
Turning to `CN[C@H](C#Cc1c(F)ccc2c1/C(=C/c1[nH]ccc1OC)C(=O)N2)CO` [Compound 16], the inhibition at 1 µM in test [2] (setting [7]) amounted to 95%.
Turning to `O=C1N=C(NCc2ccccc2)S/C1=C\c1ccc2ncccc2c1` [Compound 178], the inhibition at 10 µM in test [1] (10 µM) was ~50%. The inhibition at 1 µM in test [2] (setting [7]) came to 55%.
Consider `Cc1cc(C)c2c(n1)sc1c(N)ncnc12` [Compound 172], for which the inhibition at 10 µM in test [1] (10 µM) was ~50%. In addition, in test [2] (setting [7]), the inhibition at 1 µM is 62%.
`CNCC#Cc1c(F)ccc2c1/C(=C/c1[nH]ccc1OC)C(=O)N2` [Compound 11]: in test [2], the inhibition at 1 µM worked out at 94%.
On to `CSc1c(C2=C(c3cn(C)c4ccccc34)C(=O)NC2=O)c2ccccc2n1C` [Compound 30], for which, in test [2] (setting [7]), the inhibition at 1 µM amounted to 65%.
For `COc1cc[nH]c1/C=C1\C(=O)Nc2ccc(F)c(C#CC3(O)CCOCC3)c21` [Compound 13], the inhibition at 1 µM in test [2] (setting [7]) is 80%.
On to `O=C1N=C(N[C@H](CO)c2ccccc2)S/C1=C\c1ccc2ncccc2c1` [Compound 203], for which the inhibition at 1 µM in test [2] (setting [7]) was found to be 85%.
On the same count and under the same terms, the figure for `Cn1cc(C2=C(c3cccc4ccccc34)C(=O)NC2=O)c2ccccc21` [Compound 25] is 54%.
Same read-out and setting: the same measure for `NC1=NC(=O)/C(=C/c2ccc3ncccc3c2)S1` [Compound 205]: 82%; for `OCCn1c(-c2ccncc2)c(-c2ccc(F)cc2)c2ncccc21` [Compound 123]: 58%; for `O=C1Nc2ccc(F)cc2/C1=C/c1ccc[nH]1` [Compound 4]: 57%.
Same read-out and setting: the figure for `Cn1cc(C2=C(c3cn(CCCO)c4ccccc34)C(=O)NC2=O)c2ccccc21` [Compound 34] is 65%.
